These results are taken from US7928140B2, “Benzothiazole PI3 kinase modulators for cancer treatment” (Amgen Inc., priority 2007, dated 2011).

One assay concerns the target T1, PI3K β (Homo sapiens, UniProt P42338).
T1 construct: Full length p110 subunits of PI3K α, β and δ, N-terminally labeled with polyHis tag; polyHis (N); made in house; host or cells: Sf9 insect cells (baculovirus)
The assay can be described thus: In vitro PI3 kinase enzyme assay (beta), ATP loss, bioluminescence.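 Note: purified p110β/p85 heterodimer with PtdIns(4,5)P2 as acceptor, incubated at room temperature, leftover ATP read by luminescence, inhibition scaled to compound-free wells with and without enzyme.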 It counts as biochemical. The settings on record: read-out: PI3Kβ ATP loss IC50.

In assay [1] the test system is phosphorylation of Serine 473 in Akt, HCT 116 human colon carcinoma cells. As to the kind of experiment: Cell-based phospho-AKT Ser473 assay (MSD sandwich immunoassay, IGF-1 stimulated). As to conditions: Homo sapiens, HCT-116, HCT 116 cells; read-out: HCT 116 pAKT IC50. Here is the method:
This assay determines the ability of test compounds to inhibit the phosphorylation of […] in Akt using a MSD based sandwich immunoassay (Meso Scale Detection, catalogue # N411CAB-1). […] Prior to the assay cells were detached from the culture flask with trypsin, and re-suspended in complete media to give a final concentration of 1.6×10^5 cells per ml. Aliquots (100 μl) of the HCT116 cell suspension were seeded into each well of a 96 well tissue culture plate (Corning Incorporated COSTAR, catalogue#3595) to give a final density of 16,000 cells per well. Cells were then incubated overnight at 37° C. The following day the cells were treated with serially diluted test compounds and incubated for 2 hours at 37° C. […] As a maximum response control, wells contained 0.5% DMSO in place of test compound. The plates were mixed at 700 rpm for 2 min to ensure even distribution of the test compound and incubated for 2 hours at 37° C. Cells were then stimulated with insulin-like growth factor 1 (Sigma, product #13769) at final concentration of 100 ng/ml for 15 minutes at 37° C. The media was then removed and the cells treated with 80 μl cell-lysis buffer (MSD) containing a cocktail of protease and phosphatase inhibitors for one hour at 4° C. […] The detection antibody was removed and plates were then washed four times with 200 μl per well of Tris wash buffer. An aliquot of 150 μl of diluted MSD read buffer was then applied to each well, and the electrochemiluminescent signal was measured using a MSD SECTORTM plate reader. This instrument measures the intensity of emitted light to determine a quantitative measure of phosphorylated Akt in each well. The dose-response data obtained with each compound were analyzed and the IC50 inhibition of Akt phosphorylation at Ser473 calculated.

The next assay addresses T2, PI3K α (Homo sapiens, UniProt P42336).
T2 construct: Full length p110 subunits of PI3K α, β and δ, N-terminally labeled with polyHis tag; polyHis (N); made in house; host or cells: Sf9 insect cells (baculovirus)
The assay can be described thus: In vitro PI3 kinase enzyme assay (alpha), ATP loss, bioluminescence.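 Note: purified p110α/p85 heterodimer acting on PtdIns(4,5)P2 at room temperature, remaining ATP read by luminescence, inhibition scaled between compound-free wells with and without enzyme.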 It counts as biochemical. As to conditions: read-out: PI3Kα ATP loss IC50.

Bounds are passed on as bounds.

T1 sequence (P42338 whole entry): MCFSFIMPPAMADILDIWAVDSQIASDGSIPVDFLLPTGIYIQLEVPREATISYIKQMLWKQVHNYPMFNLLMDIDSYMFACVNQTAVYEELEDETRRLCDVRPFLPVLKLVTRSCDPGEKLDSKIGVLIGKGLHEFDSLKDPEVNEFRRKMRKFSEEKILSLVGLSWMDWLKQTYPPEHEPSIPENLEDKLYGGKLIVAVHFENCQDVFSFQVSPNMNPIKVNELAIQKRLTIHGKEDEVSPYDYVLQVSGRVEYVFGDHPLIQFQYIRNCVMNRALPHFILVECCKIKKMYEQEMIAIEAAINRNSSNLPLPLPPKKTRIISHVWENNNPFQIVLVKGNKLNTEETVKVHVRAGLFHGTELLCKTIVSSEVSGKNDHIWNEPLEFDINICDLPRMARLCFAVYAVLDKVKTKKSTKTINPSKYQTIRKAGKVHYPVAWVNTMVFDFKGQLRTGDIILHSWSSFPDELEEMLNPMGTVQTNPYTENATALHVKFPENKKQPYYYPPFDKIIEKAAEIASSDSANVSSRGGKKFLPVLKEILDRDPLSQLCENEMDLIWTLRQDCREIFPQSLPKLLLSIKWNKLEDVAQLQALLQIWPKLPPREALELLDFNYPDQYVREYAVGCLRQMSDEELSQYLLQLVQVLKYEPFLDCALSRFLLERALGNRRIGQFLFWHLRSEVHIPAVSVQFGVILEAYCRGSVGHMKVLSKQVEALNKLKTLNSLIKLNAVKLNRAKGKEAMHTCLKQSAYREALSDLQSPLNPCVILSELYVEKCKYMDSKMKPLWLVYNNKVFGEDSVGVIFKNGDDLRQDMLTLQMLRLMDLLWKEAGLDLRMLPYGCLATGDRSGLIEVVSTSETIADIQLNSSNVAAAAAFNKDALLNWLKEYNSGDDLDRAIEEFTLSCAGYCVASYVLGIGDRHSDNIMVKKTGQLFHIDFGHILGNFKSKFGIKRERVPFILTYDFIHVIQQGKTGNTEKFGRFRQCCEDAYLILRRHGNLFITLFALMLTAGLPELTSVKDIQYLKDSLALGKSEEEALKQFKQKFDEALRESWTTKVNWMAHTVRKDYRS
T1 sequence (P27986 whole entry partner): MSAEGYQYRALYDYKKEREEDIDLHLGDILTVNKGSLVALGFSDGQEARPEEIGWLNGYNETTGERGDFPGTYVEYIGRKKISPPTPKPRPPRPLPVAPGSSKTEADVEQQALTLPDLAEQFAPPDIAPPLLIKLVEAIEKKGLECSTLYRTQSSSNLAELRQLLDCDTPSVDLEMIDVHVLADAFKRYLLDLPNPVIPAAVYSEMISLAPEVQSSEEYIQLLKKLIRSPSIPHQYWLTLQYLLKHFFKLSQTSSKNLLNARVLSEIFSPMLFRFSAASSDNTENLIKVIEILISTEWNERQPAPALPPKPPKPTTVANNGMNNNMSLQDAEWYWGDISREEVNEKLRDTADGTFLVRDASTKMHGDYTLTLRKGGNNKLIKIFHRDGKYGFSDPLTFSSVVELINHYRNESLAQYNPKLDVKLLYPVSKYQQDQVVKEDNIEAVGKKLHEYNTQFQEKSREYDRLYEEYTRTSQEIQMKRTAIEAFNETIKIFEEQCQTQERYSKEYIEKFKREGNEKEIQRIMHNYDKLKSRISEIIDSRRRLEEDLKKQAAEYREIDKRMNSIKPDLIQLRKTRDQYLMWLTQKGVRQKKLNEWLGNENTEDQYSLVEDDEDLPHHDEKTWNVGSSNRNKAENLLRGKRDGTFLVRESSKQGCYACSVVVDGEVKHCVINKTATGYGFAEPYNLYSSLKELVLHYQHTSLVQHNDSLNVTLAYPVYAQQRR
T2 sequence (P42336 whole entry, species assumed): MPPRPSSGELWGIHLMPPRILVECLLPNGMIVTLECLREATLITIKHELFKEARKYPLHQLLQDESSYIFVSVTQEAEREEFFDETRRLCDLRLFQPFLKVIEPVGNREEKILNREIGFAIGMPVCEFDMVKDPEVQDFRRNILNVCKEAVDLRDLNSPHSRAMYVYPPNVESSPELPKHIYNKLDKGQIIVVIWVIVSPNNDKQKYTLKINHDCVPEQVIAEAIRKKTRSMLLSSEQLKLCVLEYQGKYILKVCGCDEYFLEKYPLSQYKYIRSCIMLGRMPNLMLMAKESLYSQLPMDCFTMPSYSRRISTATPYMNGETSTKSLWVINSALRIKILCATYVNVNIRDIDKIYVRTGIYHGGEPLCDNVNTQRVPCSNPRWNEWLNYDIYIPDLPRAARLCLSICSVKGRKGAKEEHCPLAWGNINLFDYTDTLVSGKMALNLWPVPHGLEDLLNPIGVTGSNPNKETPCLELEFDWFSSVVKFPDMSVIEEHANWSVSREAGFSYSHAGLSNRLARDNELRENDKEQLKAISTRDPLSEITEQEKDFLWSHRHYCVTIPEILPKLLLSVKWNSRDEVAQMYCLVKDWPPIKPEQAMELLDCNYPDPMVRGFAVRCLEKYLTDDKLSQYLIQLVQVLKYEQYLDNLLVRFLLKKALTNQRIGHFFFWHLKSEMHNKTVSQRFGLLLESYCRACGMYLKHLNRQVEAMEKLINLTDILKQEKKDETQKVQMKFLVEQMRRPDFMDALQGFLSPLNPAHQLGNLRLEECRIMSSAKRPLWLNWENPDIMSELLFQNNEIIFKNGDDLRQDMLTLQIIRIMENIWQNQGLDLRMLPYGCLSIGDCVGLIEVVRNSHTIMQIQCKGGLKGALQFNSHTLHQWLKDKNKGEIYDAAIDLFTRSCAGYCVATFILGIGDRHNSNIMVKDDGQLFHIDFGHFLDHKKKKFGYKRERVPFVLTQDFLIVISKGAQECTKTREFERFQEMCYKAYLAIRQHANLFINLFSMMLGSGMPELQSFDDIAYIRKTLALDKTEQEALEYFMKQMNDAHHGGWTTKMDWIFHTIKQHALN
T2 sequence (P27986 whole entry partner, species assumed): as the sequence (P27986 whole entry partner) above
Protocol for PI3K α: (§1) Full length p110 subunits of PI3K α, β and δ, N-terminally labeled with polyHis tag, were co-expressed with p85 in baculovirus expression vectors in sf9 insect cells. P110/p85 heterodimers were purified by sequential Ni-NTA, Q-HP, and Superdex-100 chromatography. Purified α, β and δ isozymes were stored at −20° C. in 20 mM Tris, pH 8, 0.2M NaCl, 50% glycerol, 5 mM DTT, 2 mM Na cholate.
(§2) PI3K enzyme assays (alpha, beta, delta and gamma) were performed in 25 mL with the above final concentrations of components in white polypropylene plates (Costar catalogue #3355). Phosphatidyl inositol phosphoacceptor, PtdIns(4,5)P2 (eg. P4508) was obtained from Echelon Biosciences. The ATPase activity of the alpha and gamma isozymes was not greatly stimulated by PtdIns(4,5)P2 under these conditions and was therefore omitted from the assay of these isozymes. Test compounds were dissolved in DMSO and diluted with three-fold serial dilutions. The compound in DMSO (1 μL) was added per test well, and the inhibition relative to reactions containing no compound, with and without enzyme was determined. After assay incubation at RT, the reaction was stopped and residual ATP determined by addition of an equal volume of a commercial ATP bioluminescence kit (Perkin Elmer EasyLite) according to the manufacturer's instructions, and detected using an Analyst GT luminometer.
Protocol for PI3K β: as §1, §2

Broadly, the IC50 is the concentration needed to halve the response being measured. On to `CC(=O)Nc1nc2ccc(-c3ccnc(NC(C)(C)c4ccccc4)n3)cc2s1` [Example 100], for which the IC50 came out at 595 nM at PI3K β and 698 nM in assay [1].

As to `CC(=O)Nc1nc2ccc(-c3ccnc(OCc4cccc(F)c4)n3)cc2s1` [Example 12, N-(6-(2-((3-fluorobenzyl)oxy)-4-pyrimidinyl)-1,3-benzothiazol-2-yl)acetamide], the IC50 at PI3K β came out at 3960 nM; in assay [1], 3930 nM.

In the case of `CC(=O)Nc1nc2ccc(-c3ccnc(NS(=O)(=O)c4cccc(F)c4)n3)cc2s1` [Example 82, N-(6-(2-(((3-fluorophenyl)sulfonyl)amino)-4-pyrimidinyl)-1,3-benzothiazol-2-yl)acetamide], the IC50 at PI3K β is 304 nM; in assay [1] it was 3900 nM.

As to `CC(=O)Nc1nc2ccc(-c3cnc(Cl)c(NS(=O)(=O)c4cccc(Cl)c4)c3)cc2s1` [Example 185, N-(6-(6-chloro-5-(3-chlorophenylsulfonamido)pyridin-3-yl)benzo[d]thiazol-2-yl)acetamide], the results for the IC50 (on PI3K β; in assay [1]) were 8.1 nM and 5.9 nM, respectively.

In the case of `CC(=O)Nc1nc2ccc(-c3cncc(NC(C)(C)C)n3)cc2s1` [Example 227, N-(6-(6-(tert-butylamino)pyrazin-2-yl)benzo[d]thiazol-2-yl)acetamide], the IC50 in assay [1] was determined as 362 nM.

In the case of `COc1ccc(S(=O)(=O)Nc2cc(-c3ccc4nc(NC(C)=O)sc4c3)ccn2)cc1` [Example 217, N-(6-(2-(4-methoxyphenylsulfonamido)pyridin-4-yl)benzo[d]thiazol-2-yl)acetamide], the IC50 on PI3K β is 117 nM; in assay [1], 71.1 nM.

Consider `COc1ccc(S(=O)(=O)Nc2cc(-c3ccc4nc(NC(C)=O)sc4c3)cnc2C)cc1` [Example 116, N-(6-(5-(((4-methoxyphenyl)sulfonyl)amino)-6-methyl-3-pyridinyl)-1,3-benzothiazol-2-yl)acetamide], for which the IC50 at PI3K β came out at 12 nM; in assay [1] it was 9.3 nM.

`COCC(=O)NCCOc1cncc(-c2ccc3nc(NC(C)=O)sc3c2)c1` [Example 298, N-(2-(5-(2-(N-actyl)aminobenzo[d]thiazol-6-yl)pyridin-3-yloxy)ethyl)-2-methoxyacetamide]: the IC50 in assay [1] turned out to be 1830 nM.

Consider `CC(=O)Nc1nc2ccc(-c3cncc(N4CC5CCC(CC5)C4)n3)cc2s1` [Example 300, N-(6-(6-(3-aza-bicyclo[3.2.2]nonan-3-yl)pyrazin-2-yl)benzo[d]thiazol-2-yl)acetamide], for which the IC50 in assay [1] stood at 8940 nM.

For `CC(=O)Nc1nc2ccc(-c3cnc(Cl)c(NS(=O)(=O)c4ccc(F)cc4)c3)cc2s1` [Example 162, N-(6-(6-Chloro-5-(4-fluorophenylsulfonamido)pyridin-3-yl)benzo[d]thiazol-2-yl)acetamide], the IC50 in assay [1] came to 10.4 nM.

In the case of `CC(=O)Nc1nc2ccc(-c3ccnc(Sc4cc(C)cc(C)c4)n3)cc2s1` [Example 149, N-(6-(2-((3,5-dimethylphenyl)sulfanyl)-4-pyrimidinyl)-1,3-benzothiazol-2-yl)acetamide], the IC50 is 186 nM at PI3K α and 387 nM at PI3K β.

In the case of `CC(=O)Nc1nc2ccc(-c3ccnc(Sc4cccc(Cl)c4)n3)cc2s1` [Example 140, N-(6-(2-((3-chlorophenyl)sulfanyl)-4-pyrimidinyl)-1,3-benzothiazol-2-yl)acetamide], the IC50 at PI3K α was 83.6 nM; on PI3K β, 134 nM.

On to `CC(=O)Nc1nc2ccc(-c3ccnc(OCCCCO)n3)cc2s1` [Example 103, N-(6-(2-(4-hydroxybutoxy)-4-pyrimidinyl)-1,3-benzothiazol-2-yl)acetamide], for which the half-maximal inhibitory concentration (IC50) at PI3K α is 727 nM; at PI3K β, greater than 40000 nM.

Take `CC(=O)Nc1nc2ccc(-c3cccc4[nH]ncc34)cc2s1` [Example 99, N-(6-(1H-Indazol-4-yl)benzo[d]thiazol-2-yl)acetamide]: the IC50 was 288 nM at PI3K α and greater than 40000 nM at PI3K β.

As for `CC(=O)Nc1nc2ccc(-c3ccnc(N(C)S(=O)(=O)c4ccsc4)n3)cc2s1` [Example 209, N-(6-(2-(N-methylthiophene-3-sulfonamido)pyrimidin-4-yl)benzo[d]thiazol-2-yl)acetamide], the IC50 on PI3K α was 185 nM; at PI3K β, 855 nM.

In the case of `CC(=O)Nc1nc2ccc(-c3cnccc3OC(F)F)cc2s1` [Example 248, N-(6-(4-(difluoromethoxy)pyridin-3-yl)benzo[d]thiazol-2-yl)acetamide], the IC50 at PI3K α was 3840 nM; on PI3K β it was 17100 nM.

As for `COc1ccc(S(=O)(=O)Nc2cc(-c3ccc4nc(NC(=O)C5CCCCC5)sc4c3)cnc2Cl)cc1` [Example 304, N-(6-(6-chloro-5-(((4-methoxyphenyl)sulfonyl)amino)-3-pyridinyl)-1,3-benzothiazol-2-yl)cyclohexanecarboxamide], the values for the IC50 at PI3K α and on PI3K β were 16.3 nM and 29.2 nM, respectively.

With `Nc1nc2ccc(-c3nnc(NS(=O)(=O)c4ccc(F)cc4)o3)cc2s1` [Example 168, N-(5-(2-aminobenzo[d]thiazol-6-yl)-1,3,4-oxadiazol-2-yl)-4-fluorobenzenesulfonamide], the half-inhibitory concentration (IC50) at PI3K α stood at 665 nM; at PI3K β it was 816 nM.

As for `CC(=O)Nc1nc2ccc(-c3ccnc(N(C)S(=O)(=O)c4ccc(C)cc4)c3)cc2s1` [Example 215, N-(6-(2-(N,4-dimethylphenylsulfonamido)pyridin-4-yl)benzo[d]thiazol-2-yl)acetamide], the IC50 on PI3K α stood at 438 nM; at PI3K β, 450 nM.

For the compound `CNc1ncc(-c2ccc3nc(NC(C)=O)sc3c2)cc1N` [Example 152, N-(6-(5-amino-6-(methylamino)pyridin-3-yl)benzo[d]thiazol-2-yl)acetamide], the results for the half-inhibitory concentration (IC50) at PI3K α and on PI3K β were 275 nM and 864 nM, respectively.

For the compound `CC(=O)Nc1nc2ccc(-c3ccnc(Sc4ccccc4C(C)C)n3)cc2s1` [Example 154, N-(6-(2-((2-(1-methylethyl)phenyl)sulfanyl)-4-pyrimidinyl)-1,3-benzothiazol-2-yl)acetamide], the concentration for half-maximal inhibition (IC50) at PI3K α came out at 376 nM; on PI3K β, 1210 nM.

Regarding `CC(=O)Nc1nc2ccc(-c3cncc(N(C)S(=O)(=O)c4ccc(C(F)(F)F)cc4)c3)cc2s1` [Example 218, N-(6-(5-(N-methyl-4-(trifluoromethyl)phenylsulfonamido)pyridin-3-yl)benzo[d]thiazol-2-yl)acetamide], the values for the IC50 at PI3K α and on PI3K β were 1050 nM and 8270 nM, respectively.

Consider `CC(=O)Nc1nc2ccc(-c3cncc(O)c3)cc2s1` [Example 296, N-(6-(5-hydroxypyridin-3-yl)benzo[d]thiazol-2-yl)acetamide], for which the IC50 in assay [1] came to 418 nM.

For `Cc1nc2ccc(-c3cc(O)c(C(F)(F)F)nc3F)cc2s1` [Example 341, 6-fluoro-5-(2-methyl-1,3-benzothiazol-6-yl)-2-(trifluoromethyl)-3-pyridinol], the IC50 was 21800 nM on PI3K α and greater than 40000 nM on PI3K β.

For the compound `CC(=O)Nc1nc2ccc(-c3ccc(Cl)nc3)cc2s1` [Example 297, N-(6-(6-chloropyridin-3-yl)benzo[d]thiazol-2-yl)acetamide], in assay [1], the IC50 amounted to 1190 nM.

Consider `CC(=O)Nc1nc2ccc(-c3cncc(OC[C@H]4CCC(=O)N4)c3)cc2s1` [Example 294, N-(6-(5-(((R)-5-oxopyrrolidin-2-yl)methoxy)pyridin-3-yl)benzo[d]thiazol-2-yl)acetamide], for which the half-inhibitory concentration (IC50) in assay [1] is greater than 5000 nM.

On to `CC(=O)Nc1nc2ccc(-c3ccnc(OCCc4cccnc4)n3)cc2s1` [Example 18, N-(6-(2-(2-(3-pyridinyl)ethoxy)-4-pyrimidinyl)-1,3-benzothiazol-2-yl)acetamide], for which the IC50 was 1100 nM on PI3K α and 32200 nM on PI3K β.

`CC(=O)Nc1nc2ccc(-c3cnc4c(c3)NC(C)(C)N4C)cc2s1` [Example 157, N-(6-(2,2,3-trimethyl-2,3-dihydro-1H-imidazo[4,5-b]pyridin-6-yl)benzo[d]thiazol-2-yl)acetamide]: the figures for the IC50 at PI3K α and on PI3K β were 664 nM and greater than 40000 nM, respectively.

As to `COc1cc(C)c(-c2ccc3nc(NC(C)=O)sc3c2)cn1` [Example 244, N-(6-(6-methoxy-4-methylpyridin-3-yl)benzo[d]thiazol-2-yl)acetamide], the half-inhibitory concentration (IC50) on PI3K α worked out at 688 nM; at PI3K β, 2990 nM.

Turning to `CC(C)(C)Nc1cc(-c2ccc3nc(N)sc3c2)cnc1Cl` [Example 315, 6-(5-(tert-butylamino)-6-chloro-3-pyridinyl)-1,3-benzothiazol-2-amine], the IC50 on PI3K α turned out to be 965 nM; at PI3K β it was 2940 nM.

Regarding `CC(=O)Nc1nc2ccc(-c3ccnc(N(C)S(=O)(=O)c4ccc(F)cc4)n3)cc2s1` [Example 203, N-(6-(2-(4-fluoro-N-methylphenylsulfonamido)pyrimidin-4-yl)benzo[d]thiazol-2-yl)acetamide], the IC50 on PI3K α was 324 nM; at PI3K β, 930 nM.
